Data published in patent US6649656B1, “Anthranilic acid derivatives” (Teijin Limited, priority 1998, dated 2003).
Read-outs that look alike come from different tables or passages of the source.

Tests used:
Format in all cases: cell-based
[1] = test system: IgG antibody production from human lymphocyte; test: Human in vitro IgG antibody production (same lymphocyte culture, sandwich ELISA); details: for inhibition at 1 µM: Homo sapiens, Lymphocyte, test drug concentration 1 μM, IL-4 + IL-10 + anti-CD40 antibody, read-out: IgG production suppressing ratio (%); for IC50: IgG antibody production
Experimental: (§1) The concentrations of IgE and IgG antibodies were measured by the following method according to the method described in the Journal of Immunology vol.146, pp.1836-1842, 1991 and the Journal of Immunology vol. 147, pp.8-13, 1991.
(§2) Concretely, lymphocyte was separated from the peripheral venous blood of healthy person by density gradient centrifugation. The obtained lymphocyte was washed, suspended in a culture liquid (RPMI-1640 (product of Gibco Co.)+10% heat-inactivated FCS (product of Whittaker Co.)+100 μg/ml streptomycin+100 U/ml penicillin G+2 mM L-glutamine) and cultured for a week in the presence of interleukin 4 (IL-4, product of GENZYME Co.) (0.1 μg/ml), anti-CD40 antibody (antiCD40Aab, product of BIOSOURCE Co.), clone B-B20) (2 μg/ml) and interleukin 10 (IL-10, product of GENZYME Co.) (0.2 μg/ml) in the presence or absence of the compounds of the present invention described in the Tables 10 to 15 at various concentrations as test drugs.
(§3) The culture liquid was added to the culture system, the culture was continued for additional one week, and the concentrations of IgE and IgG antibodies in the supernatant were measured by sandwich ELISA method.
(§4) The measurement by ELISA method was carried out according to the known ELISA method by using rabbit anti-human IgE(ε) antibody (product of ICN Co.) as the primary antibody and biotin.anti-human IgE monoclonal antibody (G7-26, product of PharMingen Co.) as the secondary antibody for the measurement of IgE antibody concentration and anti-human IgG monoclonal antibody (G18-145, product of PharMingen Co.) as the primary antibody and biotin-donkey anti-human IgG antibody (H+L) (product of Jackson Co.) as the secondary antibody for the measurement of IgG antibody concentration, and using avidin-biotin-hourse radish peroxidase (ABC kit, product of Vector Lab.) as the enzyme and TMB (3,3′,5,5′-tetramethylbenzidine) microwell peroxidase substrate system (product of Kirkegaard & Perry Laboratories Inc.) as the substrate.
(§5) The value of IC50 and the suppressing ratio (%) at the test drug concentration of 1 μM were calculated based on the concentration attained in the absence of the compound of the present invention (reference: Ueshimna, et al. American Academy of Allergy & Immunology, 1995 Annual Meeting, Program No.818).

[2] = test system: IgE antibody production from human lymphocyte; test: Human in vitro IgE antibody production suppressing activity (lymphocyte culture with IL-4 + IL-10 + anti-CD40 antibody, sandwich ELISA); details: for IC50: IgE antibody production; for inhibition at 1 µM: test drug concentration 1 μM, IL-4 + IL-10 + anti-CD40 antibody, read-out: IgE production suppressing ratio (%)
Experimental: as §1, §2, §3, §4, §5

L929 cells = test: Measurement of cytotoxicity using mouse tumor cell L929 (neutral red assay)
Experimental: [Procedure] The cytotoxicity action on tumor cell was measured by neutral red assay (the method described in the Journal of Tissue Culture Methodology vol.9, p.7 (1984) and Toxicology Letters, vol.24, p.119 (1985)). Concretely, L929 cells (5×10^4 cells/ml, 10% FCS/RPMI) were added to the wells of a 96 well ELISA plate at a rate of 100 μL each and cultured for a night, and the testing compounds of respective measurement concentrations were dissolved in DMSO solution and added to the above cells. The culture was continued for 3 days, and 2.0 μL of Neutral Red was added to attain the final concentration of 0.01%. The mixture was incubated for 1 hour at 37° C., the supernatant of the cell culture product was removed and the residue was washed twice with 200 μL of PBS to remove excess Neutral Red. Thereafter, the dye taken into the cell was extracted by adding 100 μL of 50% ethanol-1% acetic acid aqueous solution and the amount of the dye was determined by measuring the absorbance at 490 nm. The cytotoxicity was determined at each concentration of the test compound taking the cytotoxicity free from the drug as 100%. […] Two sets of measurement were performed for each test under the same condition and the average value was used as the test result.

[3] = L929, 72 h, read-out: LD50 (μM)
[4] = 72 h, cytotoxic activity against L929, neutral red assay, 3 days culture, read-out: LD50 (the source's name)

With `CC(C)(C)OC(=O)NC1CCC(Oc2ccc(Oc3ccc(CC(=O)Nc4ccccc4C(=O)O)cc3)cc2)CC1` (centres unmarked) [compound 133] the inhibition at 1 µM [1] was 98.2%, the IC50 [1] was 0.228 µM and the IC50 [2] was 0.042 µM. It also gave an inhibition at 1 µM [2] of 100% and a CC50 (L929 cells; [3]) of 0.33 µM.

For `O=C(Cc1ccc(Oc2ccc(OC3CCC(NC(=O)Nc4ccc(Cl)c(Cl)c4)CC3)cc2)cc1)Nc1ccccc1C(=O)O` (centres unmarked) [compound 142], the inhibition at 1 µM [1] was 93.7%, the IC50 [1] was 0.141 µM and the IC50 [2] was 0.034 µM. It also gave an inhibition at 1 µM [2] of 100% and a CC50 (L929 cells; [4]) of 0.54 µM.

`O=C(Cc1ccc(Oc2ccc3cc(O[C@H]4CC[C@@H](NC(=O)c5cc(Cl)cnc5Cl)CC4)ccc3c2)cc1)Nc1ccccc1C(=O)O` [compound 351] was tested, and the inhibition at 1 µM [1] was 71.7%, the IC50 [1] was 0.662 µM and the IC50 [2] was < 0.01 µM. It also gave an inhibition at 1 µM [2] of 100% and a CC50 (L929 cells; [4]) of 0.31 µM.

With `CCCCC(=O)N[C@H]1CC[C@@H](Oc2ccc3cc(Oc4ccc(C(=O)Nc5ccccc5C(=O)O)cc4)ccc3c2)CC1` [compound 370] the inhibition at 1 µM [1] was -45.5%, the IC50 [1] was > 1 µM and the IC50 [2] was 0.027 µM. It also gave an inhibition at 1 µM [2] of 94.7% and a CC50 (L929 cells; [3]) of 6.8 µM.
